# From patent US6451839B1, “Indole sPLA2 inhibitors” (Eli Lilly and Company, priority 1998, dated 2002)
# Biological target: T1, recombinant human secreted phospholipase A2 (Homo sapiens, UniProt P14555)
# T1 sequence (P14555 21-144): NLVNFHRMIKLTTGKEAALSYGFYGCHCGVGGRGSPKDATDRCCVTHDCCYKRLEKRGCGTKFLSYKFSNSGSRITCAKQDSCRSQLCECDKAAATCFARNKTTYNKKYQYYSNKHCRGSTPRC
# Test: chromogenic assay of recombinant human secreted phospholipase A2 inhibition
# Format: biochemical
# Details: diheptanoyl thio-PC substrate, pH 7.5, 40° C. for 30 minutes, absorbance at 405 nanometers, triplicate; read-out: Inhibition of human secreted PLA2 IC50 ± mean deviation
# Text: The following chromogenic assay procedure was used to identify and evaluate inhibitors of recombinant human secreted phospholipase A2. The assay described herein has been adapted for high volume screening using 96 well microtiter plates. A general description of this assay method is found in the article, “Analysis of Human Synovial Fluid Phospholipase A2 on Short Chain Phosphatidylcholine-Mixed Micelles: Development of a Spectrophotometric Assay Suitable for a Microtiterplate Reader”, by Laure J. Reynolds, Lori L. Hughes, and Edward A Dennis, Analytical Biochemistry, 204, pp. 190-197, 1992 (the disclosure of which is incorporated herein by reference):
# RACEMIC DIHEPTANOYL THIO—PC
# racemic 1,2-bis(heptanoylthio)-1,2-dideoxy-sn-glycero-3-phosphorylcholine
# The reaction mixture thus obtained contains lmM diheptanoly thio-PC substrate, 0.29 mm Triton X-100™ detergent, and 0.12 mm DTMB in a buffered aqueous solution at pH 7.5.
# 1. Add 0.2 ml reaction mixture to all wells;
# 2. Add 10 ul test compound (or solvent blank) to appropriate wells, mix 20 seconds;
# 3. Add 50 nanograms of sPLA2 (10 microliters) to appropriate wells;
# 4. Incubate plate at 40° C. for 30 minutes;
# 5. Read absorbance of wells at 405 nanometers with an automatic plate reader.
# All compounds were tested in triplicate. Typically, compounds were tested at a final concentration of 5 ug/ml. […] Lack of color development at 405 nanometers evidenced inhibition. Compounds initially found to be active were reassayed to confirm their activity and, if sufficiently active, IC50 values were determined. […] In all cases, % inhibition measured at 405 nanometers generated by enzyme reactions containing inhibitors relative to the uninhibited control reactions was determined. Each sample was titrated in triplicate and result values were averaged for plotting and calculation of IC50 values. IC50 were determined by plotting log concentration versus inhibition values in the range from 10-90% inhibition.
row,SMILES,IC50 [µM]
1,"CCc1c(NC(N)=O)c2c(OCC(=O)O)cccc2n1Cc1ccccc1 [Example 1, [[2-Ethyl-1-(phenylmethyl)-3-ureido-1H-indol-4-yl]oxy]acetic acid]",0.049
2,"CCc1c(NC(C)=O)c2c(OCC(=O)O)cccc2n1Cc1ccccc1 [Example 2, [[3-Acetamido-2-ethyl-1-(phenylmethyl)-1H-indol-4-yl]oxy]acetic acid]",65
3,"CCc1c(NC(=O)C(F)(F)F)c2c(OCC(=O)O)cccc2n1Cc1ccccc1 [Example 3, [[3-trifluoroacetamido-2-ethyl-1-(phenylmethyl)-1H-indol-4-yl]oxy]acetic acid]",51
4,"CCc1c(NC(=O)CBr)c2c(OCC(=O)O)cccc2n1Cc1ccccc1 [Example 4, [[3-(Bromo)acetamido-2-ethyl-1-(phenylmethyl)-1H-indol-4-yl]oxy]acetic acid]",45
5,"CCc1c(NC(N)=S)c2c(OCC(=O)O)cccc2n1Cc1ccccc1 [Example 5, [[2-Ethyl-1-(phenylmethyl)-3-thioureido-1H-indol-4-yl]oxy]acetic acid]",6.8
6,"CCc1c(NC(=O)C(N)=O)c2c(OCC(=O)O)cccc2n1Cc1ccccc1 [Example 6, [[2-ethyl-3-oxamide-1-(phenylmethyl)-1H-indol-4-yl]oxy]acetic acid]",13
7,"CCc1c(NC(N)=O)c2c(OCC(=O)O)cccc2n1Cc1ccccc1-c1ccccc1 [Example 7, [[2-ethyl-1-(2-phenyl-phenylmethyl)-3-ureido-1H-indol-4-yl]oxy]acetic acid]",0.021
8,"CCc1c(NC(N)=O)c2c(OCC(=O)O)cccc2n1Cc1ccccc1Br [Example 8, [[2-ethyl-1-(2-bromo-phenylmethyl)-3-ureido-1H-indol-4-yl]oxy]acetic acid]",0.074
9,"CCc1c(NC(N)=O)c2c(OCC(=O)O)cccc2n1Cc1ccccc1-c1ccc(F)cc1 [Example 9, [[2-ethyl-1-(2-(4-fluorophenyl)-phenylmethyl)-3-ureido-1H-indol-4-yl]oxy]acetic acid]",0.017
